Measurements: US11642671B2, “Electrowetting on dielectric (EWOD) device to perform liquid-to-liquid extraction (LLE) of biomolecules and systems and methods for using the EWOD device” (Board of Regents, The University of Texas System, priority 2019, dated 2023)

Experiment: Multistage LLE (MLLE) of binary dye mixture on EWOD device with IL extractant
Assay type: physicochemical
Details: binary 1:1 green/yellow dye sample
Protocol: The sample phase was prepared by mixing equal amounts of these two dyes. The final concentration of each analyte in the sample mixture formed was 1250 μg/ml for all the EWOD LLE experiments. […]
For the LLE process on an EWOD DMF electrode array, the droplets were generated, mixed, and split during the process. […] The on-chip concentration method quantified the yield of the LLE process. […]
In order to explore this characteristic of EWOD, MLLE was performed in this study with two cycles of LLE. […] After each cycle of the process, the sample droplet was transported to the concentration measurement electrode, and the voltage measurement was done for absorbance.
Next, the results of binary separation by MLLE performed on the EWOD device 20 was compared with theoretical values. The theoretical values were calculated from the partition coefficient values of each solute obtained in the manner described above. […]

Q: Which results are given for Cc1ccc(Nc2ccc(Nc3ccc(C)cc3S(=O)(=O)[O-])c3c2C(=O)c2ccccc2C3=O)c(S(=O)(=O)[O-])c1.[Na+].[Na+] [green dye, acid green 25]?
A: green dye extracted after first cycle of LLE on EWOD (IL extractant, extraction time 5 minutes): ~50%; initial green dye extracted at the end of the second cycle (fresh IL droplet, two MLLE cycles): ~60%
